Measurements reported in US20250345314A1 (PUSAN NATIONAL UNIVERSITY INDUSTRY-UNIVERSITY COOPERATION …, priority 2024, published 2025).

Experiments:
Format in all cases: cell-based
[1] = tested on: mesenchymal stem cells UCB #001, UCB #006, and UCB #192; test: Cell viability of mesenchymal stem cells by CCK-8 assay
Protocol: The effects of rapamycin on the survival rate of mesenchymal stem cells and the secretion of HGF and PGE2 were confirmed. Specifically, the mesenchymal stem cells UCB #001, UCB #006, and UCB #192 were treated with rapamycin at various concentrations of 1.25, 2.5, 5, 10, 20, 40, and 80 ng/ml for 24 hours.
(§1) The effects of pirfenidone, a drug used clinically as an anti-fibrotic drug, on the survival rate of mesenchymal stem cells and the secretion of HGF and PGE2 were confirmed in the same manner as rapamycin. The results of confirming the survival rate of mesenchymal stem cells according to pirfenidone treatment were shown in FIG. 3A, and the results of analyzing HGF and PGE2 secretion were shown in FIGS. 3B and 3C, respectively.

[2] = tested on: mesenchymal stem cells UCB #001, UCB #006, and UCB #192; test: PGE2 secretion of mesenchymal stem cells by ELISA; details: pirfenidone treatment
Protocol: (§2) In addition, changes in HGF and PGE2 secretion in mesenchymal stem cells treated with rapamycin at various concentrations were analyzed by ELISA. The results of analyzing HGF and PGE2 secretion were shown in FIGS. 2B and 2C, respectively.
as §1

[3] = tested on: mesenchymal stem cells UCB #001, UCB #006, and UCB #192; test: HGF secretion of mesenchymal stem cells by ELISA
Protocol: as §2, §1

SMILES | cell viability ([1]; UCB #001, pirfenidone 1 to 6 μg/ml, CCK-8) | concentration at which cytotoxicity was exhibited ([1]; UCB #006 and UCB #192, CCK-8) [µg/mL] | cell viability ([1]; UCB #006 and UCB #192, pirfenidone 1 to 10 μg/ml, CCK-8) | PGE2 secretion [2] | HGF secretion ([3]; pirfenidone 20 μg/ml) | HGF secretion ([3]; pirfenidone 4 to 10 μg/ml) | concentration at which cytotoxicity was exhibited ([1]; mesenchymal stem cells, 24 hours, CCK-8) [µg/mL]
Cc1ccc(=O)n(-c2ccccc2)c1 [pirfenidone] | increased | ≥ 20 | increased | no significant change | reduced | did not affect | 
CO[C@H]1C[C@@H]2CC[C@@H](C)[C@@](O)(O2)C(=O)C(=O)N2CCCC[C@H]2C(=O)O[C@H]([C@H](C)C[C@@H]2CC[C@@H](O)[C@H](OC)C2)CC(=O)[C@H](C)/C=C(\C)[C@@H](O)[C@@H](OC)C(=O)[C@H](C)C[C@H](C)/C=C/C=C/C=C/1C [rapamycin] |  |  |  |  |  |  | ≥ 0.08
